pEC50, pIC50: −log10 of the molar value. Calls of active or inactive are those of the source.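 The calls were made as follows: active = compounds giving half or more protection of infected cells from virus-caused growth loss, again on retest; inactive = the rest.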
System: CEM cells HIV-1 protection, formazan growth assay
Test: NCI AIDS Antiviral Assay
Details: for pIC50: measured here: growth of uninfected CEM cells
Description: The ability of compounds to protect human CEM cells from HIV-1 infection is measured as a screen for new compounds capable of inhibiting the HIV virus. Five concentrations of drug were tested on uninfected and infected cells and cell growth was measured using a soluble formazan assay. […] Compounds that provided at least 50% protection were retested. Compounds that provided at least 50% protection on retest were listed as moderately active. Compounds that reproducibly provided 100% protection were listed as confirmed active. […] Note that the inability to provide protection could be due to toxicity.

For `COc1ccc(NC(=O)C(=O)NNC(=O)c2sc(NNC(C)=O)nc2C)c([N+](=O)[O-])c1`, the pEC50 was less than 4.52 and the pIC50 was less than 4.52.
`CCOC(=O)C1COc2cc(-c3cc(=O)c4ccccc4o3)ccc2O1` (configuration not stated) was tested, and the outcome was “inactive”.
In the case of `Cc1ccc(S(=O)(=O)N2CCNCCN(S(=O)(=O)c3ccc(C)cc3)CCNCC2)cc1`, the pEC50 was less than 3.90 and the pIC50 was 4.29.
For `C/C=C/CSc1cc(NC(=S)c2ccsc2C)ccc1Cl`, the pEC50 was 6.58 and the pIC50 was 4.91.
In the case of `COc1cc(/C=C2\CC/C(=C\c3ccc(O)c(OC)c3)C2=O)ccc1O`, the pEC50 was less than 3.70 and the pIC50 was 5.83.
Work on `CC(C)(C)c1cc2c(OP(c3ccccc3)c3ccccc3)c(c1)Cc1cc(C(C)(C)C)cc(c1OP(c1ccccc1)c1ccccc1)Cc1cc(C(C)(C)C)cc(c1OP(c1ccccc1)c1ccccc1)Cc1cc(C(C)(C)C)cc(c1OP(c1ccccc1)c1ccccc1)C2` yielded a pEC50 of less than 5.98 and a pIC50 of less than 5.98.
For `COC(=O)C(N)CSSCC(N)C(=O)OC` (configuration not stated), the pEC50 was less than 3.49 and the pIC50 was 3.91.
In the case of `COC(=O)C1C2CC3C(C2=O)C31` (configuration not stated), the pEC50 was less than 3.70 and the pIC50 was less than 3.70.
`O=C1CC2C3CC4CC(C3)CC2(C4)O1` (configuration not stated) gave a pEC50 of less than 3.70 and a pIC50 of less than 3.70.
`CC(C)(C)OC(=O)N1N=NC2C3OC(CC3=O)C21` (configuration not stated) showed a pEC50 of less than 3.15 and a pIC50 of 3.45.
With `N#CC1=C2Sc3ccccc3N2[C@H](c2ccccc2)[C@H]2COC(=O)[C@@H]12` the pEC50 was less than 3.82 and the pIC50 was 4.42.
`O=c1n(-c2ccccc2)c(=O)n2n1C1/C=C\C=C/C2C2CCC21` (configuration not stated) gave a pEC50 of less than 3.70 and a pIC50 of less than 3.70.
Work on `COc1onc(C)c1CC(=O)O` yielded a pEC50 of less than 3.70 and a pIC50 of less than 3.70.
For `CC(C)C1=C[C@@]23CCC4C(C)(C)CCC[C@]4(C(=O)O2)C3=CC1=O` (some centres not stated), the pEC50 was less than 4.36 and the pIC50 was less than 4.36.
`COc1ccc(OC)c2cc(C3(C)SCCCS3)ccc12` was tested, and the outcome was “inactive”.
`O=C1Cc2c(-c3ccccc3)cc(-c3ccccc3)nc2-c2ccccc2N1` was tested, and the pEC50 was less than 3.70 and the pIC50 was 5.21.
With `C=C(C)CN1CCCN(S(=O)(=O)c2ccc(C)cc2)CC(=C)CN(S(=O)(=O)c2ccc(C)cc2)CCC1` the pEC50 was less than 3.70 and the pIC50 was 5.28.
Compound `O=S1(=O)CC2OC(c3ccccc3)OC2C1` (configuration not stated) has a pEC50 of less than 3.27 and a pIC50 of less than 3.27.
`O=C(OCC1CCCN2CCCCC12)c1cccnc1` (configuration not stated) showed a pEC50 of less than 3.70 and a pIC50 of less than 3.70.
Compound `CCCCCCCCSCC1OC2OC3C(CSCCCCCCCC)OC(OC4C(CSCCCCCCCC)OC(OC5C(CSCCCCCCCC)OC(OC6C(CSCCCCCCCC)OC(OC7C(CSCCCCCCCC)OC(OC8C(CSCCCCCCCC)OC(OC1C(OS(=O)(=O)O)C2OS(=O)(=O)O)C(OS(=O)(=O)O)C8OS(=O)(=O)O)C(OS(=O)(=O)O)C7OS(=O)(=O)O)C(OS(=O)(=O)O)C6OS(=O)(=O)O)C(OS(=O)(=O)O)C5OS(=O)(=O)O)C(OS(=O)(=O)O)C4OS(=O)(=O)O)C(OS(=O)(=O)O)C3OS(=O)(=O)O` (configuration not stated) has a pEC50 of 5.59 and a pIC50 of 4.30.
With `NC(=O)C(=CN1C(=O)/C(=C/c2ccccc2O)SC1=S)C(N)=O` the pEC50 was less than 3.70 and the pIC50 was 3.91.
In the case of `O=C(CSc1nnc(Cc2ccccc2)o1)Nc1cccc([N+](=O)[O-])c1`, the pEC50 was less than 4.01 and the pIC50 was less than 4.01.
`O=C1CCCCCCCCCCOC(=O)CCCCCCCCCCO1` was tested, and the pEC50 was less than 4.99 and the pIC50 was less than 4.99.
`O=C(O)/N=N\C(=O)O` showed a pEC50 of less than 3.82 and a pIC50 of less than 3.82.
`CC1=C(C)CC(C#N)(C#N)C(C#N)(C#N)C1` showed a pEC50 of less than 3.70 and a pIC50 of 4.72.
With `COC(=O)C1=C(CS(=O)c2ccccc2[N+](=O)[O-])C2C=CC1C2` (configuration not stated) the outcome was “inactive”.
`Nc1ncccc1N1C(=O)c2ccccc2C1=O` gave a pEC50 of less than 3.70 and a pIC50 of less than 3.70.
`COc1cccc(NC(=O)c2c(SC)n[nH]c2N)c1` was tested, and the pEC50 was less than 3.70 and the pIC50 was less than 3.70.
With `CN1CC[C@@H](O)C(CNC23CC4CC(CC(C4)C2)C3)C1` (some centres not stated) the pEC50 was less than 3.70 and the pIC50 was less than 3.70.
Work on `Nc1ccc(N=Nc2ccc(CCc3ccc(N=Nc4ccc(N)c5cc(S(=O)(=O)O)ccc45)cc3S(=O)(=O)O)c(S(=O)(=O)O)c2)c2ccc(S(=O)(=O)O)cc12` yielded a pEC50 of less than 3.84 and a pIC50 of 4.27.
Work on `COc1ccc(/C=C/C(=O)c2ccccc2)cc1` yielded a pEC50 of less than 4.38 and a pIC50 of 4.61.
`c1ccc([P+](c2ccccc2)(c2ccccc2)c2ccc([P+](c3ccccc3)(c3ccccc3)c3ccccc3)c3ccccc23)cc1` gave a pEC50 of less than 3.70 and a pIC50 of 3.96.
Work on `COCN1COCN=C1NC#N` yielded a pEC50 of less than 3.28 and a pIC50 of less than 3.28.
`Fc1ccc(C2(CCCN3CCc4[nH]c5cc(F)ccc5c4C3)OCCO2)cc1` was tested, and the pEC50 was less than 3.70 and the pIC50 was 4.73.
Compound `Clc1ccc2c(NCCCCCCNc3ccnc4cc(Cl)ccc34)ccnc2c1` has a pEC50 of less than 4.85 and a pIC50 of 5.62.
`O=C(/C=C/c1ccccc1)NCCC1(O)C(=O)Nc2ccccc21` (configuration not stated) gave a pEC50 of less than 3.25 and a pIC50 of 3.28.
Compound `CSC(=NC(=O)c1ccccc1Cl)SCCSC(=NC(=O)c1ccccc1Cl)SC` has a pEC50 of less than 3.46 and a pIC50 of less than 3.46.
`N#Cc1cccc(/C=C/C(=O)c2ccccc2)c1` showed a pEC50 of less than 4.65 and a pIC50 of 5.39.
`O=c1oc(-c2ccccc2)c(-c2ccccc2)c(-c2ccccc2)c1-c1ccccc1` was tested, and the pEC50 was less than 4.33 and the pIC50 was 4.53.
Compound `CC1(CC(O)(C(F)(F)F)C(F)(F)F)NC(=O)NC1=O` (configuration not stated) has a pEC50 of less than 3.70 and a pIC50 of less than 3.70.

Source: PubChem BioAssay AID179 (DTP/NCI, 2004)
